Measurements reported in article PMC5218480 (PLoS ONE, 2017).

Tested on: MV-4-11 cells
Assay: Gene expression microarray analysis (Affymetrix PrimeView) and GSEA
Format: cell-based, human
Design: RFU PODN (11730768_x_at) / Fold change /veh PODN (11730768_x_at) / RFU LINC00158 (11744669_a_at) / Fold change /veh LINC00158 (11744669_a_at) / RFU DUSP10 (11751237_a_at) / Fold change /veh DUSP10 (11751237_a_at) / RFU ID3 (11757404_x_at) / Fold change /veh ID3 (11757404_x_at) / RFU PLEKHG5 (11737974_s_at) / Fold change /veh PLEKHG5 (11737974_s_at) / RFU LRRC4B (11730491_at) / Fold change /veh LRRC4B (11730491_at) / RFU GIMAP4 (11747438_a_at) / Fold change /veh GIMAP4 (11747438_a_at) / RFU KRT8 (11758183_x_at) / Fold change /veh KRT8 (11758183_x_at) / RFU CNN1 (11734310_a_at) / Fold change /veh CNN1 (11734310_a_at) / RFU VPS37D (11726825_at) / Fold change /veh VPS37D (11726825_at) / RFU C10orf10 (11716522_x_at) / Fold change /veh C10orf10 (11716522_x_at) / RFU KIR2DL2 /// KIR2DL4 /// KIR2DL5A /// KIR2DL5B /// KIR2DS1 /// KIR2DS2 /// KIR2DS3 /// KIR2DS4 /// KIR3DL3 /// KIR3DL3 /// KIR3DS1 (11738374_at) / Fold change /veh KIR2DL2 /// KIR2DL4 /// KIR2DL5A /// KIR2DL5B /// KIR2DS1 /// KIR2DS2 /// KIR2DS3 /// KIR2DS4 /// KIR3DL3 /// KIR3DL3 /// KIR3DS1 (11738374_at) / RFU C1QL1 (11718748_at) / Fold change /veh C1QL1 (11718748_at) / RFU TMPRSS4 (11747572_a_at) / Fold change /veh TMPRSS4 (11747572_a_at) / RFU HAMP (11756126_x_at) / Fold change /veh HAMP (11756126_x_at) / RFU RNFT2 (11725882_a_at) / Fold change /veh RNFT2 (11725882_a_at) / RFU NR4A2 (11747474_a_at) / Fold change /veh NR4A2 (11747474_a_at) / RFU ABCC12 (11746883_a_at) / Fold change /veh ABCC12 (11746883_a_at) / RFU TMEM136 (11760407_x_at) / Fold change /veh TMEM136 (11760407_x_at) / RFU CLDN22 /// WWC2 (11732394_at) / Fold change /veh CLDN22 /// WWC2 (11732394_at) / RFU HLA-DPB1 (11760878_x_at) / Fold change /veh HLA-DPB1 (11760878_x_at) / RFU SPINT1 (11716480_a_at) / Fold change /veh SPINT1 (11716480_a_at) / RFU GAP43 (11754022_s_at) / Fold change /veh GAP43 (11754022_s_at) / RFU A4GNT (11735810_at) / Fold change /veh A4GNT (11735810_at) / RFU PRB3 (11715151_x_at) / Fold change /veh PRB3 (11715151_x_at) / RFU TUBB4B (11761932_at) / Fold change /veh TUBB4B (11761932_at) / RFU CAPN14 (11732068_a_at) / Fold change /veh CAPN14 (11732068_a_at) / RFU TMCC2 (11721928_a_at) / Fold change /veh TMCC2 (11721928_a_at) / RFU IRGQ (11745062_a_at) / Fold change /veh IRGQ (11745062_a_at) / RFU FAM174B (11720279_a_at) / Fold change /veh FAM174B (11720279_a_at) / RFU TMPRSS4 (11748680_a_at) / Fold change /veh TMPRSS4 (11748680_a_at) / RFU FAM212B (11763350_a_at) / Fold change /veh FAM212B (11763350_a_at) / RFU PLEKHG5 (11743358_a_at) / Fold change /veh PLEKHG5 (11743358_a_at) / RFU ZSCAN30 (11745921_a_at) / Fold change /veh ZSCAN30 (11745921_a_at) / RFU CMKLR1 (11741424_a_at) / Fold change /veh CMKLR1 (11741424_a_at) / RFU LOC101060620 /// MAPK8IP1 (11723275_at) / Fold change /veh LOC101060620 /// MAPK8IP1 (11723275_at) / RFU SPTSSB (11747773_x_at) / Fold change /veh SPTSSB (11747773_x_at) / RFU PRSS12 (11739890_at) / Fold change /veh PRSS12 (11739890_at) / RFU BIN1 (11741810_x_at) / Fold change /veh BIN1 (11741810_x_at) / RFU WNT11 (11732464_a_at) / Fold change /veh WNT11 (11732464_a_at) / RFU C10orf10 (11716521_a_at) / Fold change /veh C10orf10 (11716521_a_at) / RFU C5orf56 (11738089_at) / Fold change /veh C5orf56 (11738089_at) / RFU CYB561 (11721691_x_at) / Fold change /veh CYB561 (11721691_x_at) / RFU ANKRD19P (11752326_a_at) / Fold change /veh ANKRD19P (11752326_a_at) / RFU OR2T12 /// OR2T33 /// OR2T8 (11738714_s_at) / Fold change /veh OR2T12 /// OR2T33 /// OR2T8 (11738714_s_at) / RFU VCAN (11748164_a_at) / Fold change /veh VCAN (11748164_a_at) / RFU JSRP1 (11732532_at) / Fold change /veh JSRP1 (11732532_at) / RFU KRTAP10-11 (11738290_x_at) / Fold change /veh KRTAP10-11 (11738290_x_at) / RFU MYO3A (11730013_a_at) / Fold change /veh MYO3A (11730013_a_at) / RFU EBF3 (11725865_a_at) / Fold change /veh EBF3 (11725865_a_at) / RFU CAMK2N1 (11719241_x_at) / Fold change /veh CAMK2N1 (11719241_x_at) / RFU C5orf56 (11738088_a_at) / Fold change /veh C5orf56 (11738088_a_at) / RFU OLFML3 (11715873_a_at) / Fold change /veh OLFML3 (11715873_a_at) / RFU LOC100653217 /// NTM (11731650_a_at) / Fold change /veh LOC100653217 /// NTM (11731650_a_at) / RFU MAPK11 (11762145_a_at) / Fold change /veh MAPK11 (11762145_a_at) / RFU FIZ1 (11724087_x_at) / Fold change /veh FIZ1 (11724087_x_at) / RFU OASL (11726364_x_at) / Fold change /veh OASL (11726364_x_at) / RFU SOX15 (11748057_x_at) / Fold change /veh SOX15 (11748057_x_at) / RFU CD79A (11719716_a_at) / Fold change /veh CD79A (11719716_a_at) / RFU HIST1H1D (11736915_at) / Fold change /veh HIST1H1D (11736915_at) / RFU CASKIN2 (11723855_a_at) / Fold change /veh CASKIN2 (11723855_a_at) / RFU LOC730098 (11760151_x_at) / Fold change /veh LOC730098 (11760151_x_at) / RFU OR4N2 (11742367_at) / Fold change /veh OR4N2 (11742367_at) / RFU PRRT2 (11749266_a_at) / Fold change /veh PRRT2 (11749266_a_at) / RFU SNX32 (11753110_a_at) / Fold change /veh SNX32 (11753110_a_at) / RFU CDHR5 (11726645_a_at) / Fold change /veh CDHR5 (11726645_a_at) / RFU RCAN1 (11760418_a_at) / Fold change /veh RCAN1 (11760418_a_at) / RFU FAM167A (11723789_a_at) / Fold change /veh FAM167A (11723789_a_at) / RFU FAM26E (11764081_at) / Fold change /veh FAM26E (11764081_at) / RFU ISYNA1 (11749810_s_at) / Fold change /veh ISYNA1 (11749810_s_at) / RFU ACY1 (11761880_at) / Fold change /veh ACY1 (11761880_at) / RFU 11764098_at / Fold change /veh 11764098_at / RFU SAMD14 (11745864_x_at) / Fold change /veh SAMD14 (11745864_x_at) / RFU NPB (11741838_a_at) / Fold change /veh NPB (11741838_a_at) / RFU TMPRSS6 (11731388_a_at) / Fold change /veh TMPRSS6 (11731388_a_at) / RFU KRTAP10-2 (11738614_at) / Fold change /veh KRTAP10-2 (11738614_at) / RFU ARHGAP8 /// PRR5-ARHGAP8 (11727945_x_at) / Fold change /veh ARHGAP8 /// PRR5-ARHGAP8 (11727945_x_at) / RFU KRTAP5-7 /// NADSYN1 (11734609_at) / Fold change /veh KRTAP5-7 /// NADSYN1 (11734609_at) / RFU RASL12 (11751679_a_at) / Fold change /veh RASL12 (11751679_a_at) / RFU CDKN2B (11736163_a_at) / Fold change /veh CDKN2B (11736163_a_at) / RFU PRF1 (11729649_at) / Fold change /veh PRF1 (11729649_at) / RFU, ZNF638 /// ZNF638-IT1 / Fold change vs veh, ZNF638 /// ZNF638-IT1 / RFU, PANK3 / Fold change vs veh, PANK3 / RFU, SH3YL1 / Fold change vs veh, SH3YL1 / RFU, ZEB2 / Fold change vs veh, ZEB2 / RFU, NRIP1 / Fold change vs veh, NRIP1 / RFU, PTTG1IP / Fold change vs veh, PTTG1IP / RFU, CAPN2 / Fold change vs veh, CAPN2 / RFU, MED14 / Fold change vs veh, MED14 / RFU, SNORA58 / Fold change vs veh, SNORA58 / RFU, C1orf63 / Fold change vs veh, C1orf63 / RFU, LRRFIP1 / Fold change vs veh, LRRFIP1 / RFU, NDUFAF7 / Fold change vs veh, NDUFAF7 / RFU, SLC12A2 / Fold change vs veh, SLC12A2 / RFU, IBTK / Fold change vs veh, IBTK / RFU, ESF1 / Fold change vs veh, ESF1 / Fold change vs veh, TMEM50B / RFU, TAOK1 / Fold change vs veh, TAOK1 / RFU, ACBD3 / Fold change vs veh, ACBD3 / RFU, TMA16 / Fold change vs veh, TMA16 / RFU, RWDD3 / Fold change vs veh, RWDD3 / RFU, BCAT1 / Fold change vs veh, BCAT1 / RFU, EDEM3 / Fold change vs veh, EDEM3 / RFU, TMEM33 / Fold change vs veh, TMEM33 / RFU, WDR75 / Fold change vs veh, WDR75 / RFU, AHCTF1 / Fold change vs veh, AHCTF1 / RFU, TFRC / Fold change vs veh, TFRC / RFU, ZDHHC17 / Fold change vs veh, ZDHHC17 / RFU, NOM1 / Fold change vs veh, NOM1 / RFU, ARL8B / Fold change vs veh, ARL8B / RFU, ZBTB11 / Fold change vs veh, ZBTB11 / RFU, TAMM41 / Fold change vs veh, TAMM41 / RFU, KIAA1704 /// LOC100996395 / Fold change vs veh, KIAA1704 /// LOC100996395 / RFU, ING1 / Fold change vs veh, ING1 / RFU, TRMT61B / Fold change vs veh, TRMT61B / RFU, FUBP3 / Fold change vs veh, FUBP3 / RFU, TP53 / Fold change vs veh, TP53 / RFU, TNKS2 / Fold change vs veh, TNKS2 / RFU, ZFP14 / Fold change vs veh, ZFP14 / RFU, ACTR2 / Fold change vs veh, ACTR2 / RFU, PPP3R1 / Fold change vs veh, PPP3R1 / RFU, PIK3R1 / Fold change vs veh, PIK3R1 / RFU, HNRNPA1 / Fold change vs veh, HNRNPA1 / RFU, RNF170 / Fold change vs veh, RNF170 / RFU, ZNF28 / Fold change vs veh, ZNF28 / RFU, RNGTT / Fold change vs veh, RNGTT / RFU, OGT / Fold change vs veh, OGT / RFU, BRD1 / Fold change vs veh, BRD1 / RFU, MARS / Fold change vs veh, MARS / RFU, ZNF655 / Fold change vs veh, ZNF655 / RFU, FAHD1 / Fold change vs veh, FAHD1 / RFU, BDP1 / Fold change vs veh, BDP1 / RFU, LRRCC1 / Fold change vs veh, LRRCC1 / RFU, ARID1A / Fold change vs veh, ARID1A / RFU, ZNF146 / Fold change vs veh, ZNF146 / RFU, ZNF330 / Fold change vs veh, ZNF330 / RFU, GPN3 / Fold change vs veh, GPN3 / RFU, C9orf123 / Fold change vs veh, C9orf123 / RFU, N4BP2L2 / Fold change vs veh, N4BP2L2 / RFU, ARFIP1 / Fold change vs veh, ARFIP1 / RFU, FAM179B / Fold change vs veh, FAM179B / RFU, BCL10 / Fold change vs veh, BCL10 / RFU, UHRF1BP1L / Fold change vs veh, UHRF1BP1L / RFU, BET1 / Fold change vs veh, BET1 / RFU, CNOT2 / Fold change vs veh, CNOT2 / RFU, ZNF268 / Fold change vs veh, ZNF268 / Fold change vs veh, ZNF507 / RFU, DGCR2 / Fold change vs veh, DGCR2 / RFU, WDSUB1 / Fold change vs veh, WDSUB1 / Fold change vs veh, HSP90B1 /// MIR3652 / RFU, ADSS / Fold change vs veh, ADSS / RFU, GK / Fold change vs veh, GK / RFU, ZNF148 / Fold change vs veh, ZNF148 / RFU, TAF9 / Fold change vs veh, TAF9 / RFU, SLC1A5 / Fold change vs veh, SLC1A5 / RFU, SLMO2 / Fold change vs veh, SLMO2 / RFU, ABCC4 / Fold change vs veh, ABCC4 / RFU, LOC101060439 /// RAP1B / Fold change vs veh, LOC101060439 /// RAP1B / RFU, RFX7 / Fold change vs veh, RFX7 / RFU, GTPBP10 / Fold change vs veh, GTPBP10 / RFU, CNEP1R1 / Fold change vs veh, CNEP1R1 / RFU, BIVM-ERCC5 /// ERCC5 / Fold change vs veh, BIVM-ERCC5 /// ERCC5 / RFU, ILF3 / Fold change vs veh, ILF3 / RFU 11762660_at / Fold change /veh 11762660_at / RFU VCAN (11757783_s_at) / Fold change /veh VCAN (11757783_s_at) / RFU DDX43 (11728927_at) / Fold change /veh DDX43 (11728927_at) / RFU KRT8 (11758188_x_at) / Fold change /veh KRT8 (11758188_x_at) / RFU NKD1 (11759106_at) / Fold change /veh NKD1 (11759106_at) / RFU SRD5A1 (11742802_a_at) / Fold change /veh SRD5A1 (11742802_a_at) / RFU TPSAB1 /// TPSB2 (11721975_s_at) / Fold change /veh TPSAB1 /// TPSB2 (11721975_s_at) / RFU GSTM3 (11746129_a_at) / Fold change /veh GSTM3 (11746129_a_at) / RFU IL23R (11737362_x_at) / Fold change /veh IL23R (11737362_x_at) / RFU TMEM51 (11727254_a_at) / Fold change /veh TMEM51 (11727254_a_at) / RFU PIWIL2 (11732686_x_at) / Fold change /veh PIWIL2 (11732686_x_at) / RFU ORM1 (11744905_x_at) / Fold change /veh ORM1 (11744905_x_at) / RFU CCDC152 (11743942_at) / Fold change /veh CCDC152 (11743942_at) / RFU ECM1 (11717891_a_at) / Fold change /veh ECM1 (11717891_a_at) / RFU IL23R (11748794_a_at) / Fold change /veh IL23R (11748794_a_at) / RFU TNFAIP8L3 (11732012_x_at) / Fold change /veh TNFAIP8L3 (11732012_x_at) / RFU MBOAT4 (11741988_at) / Fold change /veh MBOAT4 (11741988_at) / RFU 11764193_at / Fold change /veh 11764193_at / RFU TMEM53 (11763286_at) / Fold change /veh TMEM53 (11763286_at) / RFU MAGEB2 (11727129_at) / Fold change /veh MAGEB2 (11727129_at) / RFU TMEM200A (11744735_a_at) / Fold change /veh TMEM200A (11744735_a_at) / RFU CCDC152 (11751479_a_at) / Fold change /veh CCDC152 (11751479_a_at) / RFU FAM211A (11726209_a_at) / Fold change /veh FAM211A (11726209_a_at) / RFU RGS16 (11746705_a_at) / Fold change /veh RGS16 (11746705_a_at) / RFU VCAN (11755009_s_at) / Fold change /veh VCAN (11755009_s_at) / RFU RHOB (11743442_s_at) / Fold change /veh RHOB (11743442_s_at) / RFU RGS16 (11720943_a_at) / Fold change /veh RGS16 (11720943_a_at) / RFU RGS16 (11720944_at) / Fold change /veh RGS16 (11720944_at) / RFU, VPS4B / Fold change vs veh, VPS4B / RFU, CREB1 / Fold change vs veh, CREB1 / RFU, DNAJC13 / Fold change vs veh, DNAJC13 / RFU, GNAQ / Fold change vs veh, GNAQ / RFU, CDK5R1 / Fold change vs veh, CDK5R1 / RFU, ZRANB3 / Fold change vs veh, ZRANB3 / RFU, CUL4A / Fold change vs veh, CUL4A / RFU, CCNY / Fold change vs veh, CCNY / RFU, UFL1 / Fold change vs veh, UFL1 / RFU, COG3 / Fold change vs veh, COG3 / RFU, DIAPH2 / Fold change vs veh, DIAPH2 / RFU, SKA2 / Fold change vs veh, SKA2 / RFU, AFF3 / Fold change vs veh, AFF3 / RFU, LMF1 / Fold change vs veh, LMF1 / RFU, IPO11 / Fold change vs veh, IPO11 / RFU, DFFB / Fold change vs veh, DFFB / RFU, FOXP1 / Fold change vs veh, FOXP1 / RFU, CARD8 / Fold change vs veh, CARD8 / RFU, STRN3 / Fold change vs veh, STRN3 / RFU, ADK / Fold change vs veh, ADK / RFU, RASSF2 / Fold change vs veh, RASSF2 / RFU, WIPF1 / Fold change vs veh, WIPF1 / RFU, LARP1B / Fold change vs veh, LARP1B / RFU, RASA1 / Fold change vs veh, RASA1 / RFU, RB1 / Fold change vs veh, RB1 / RFU, PPFIA1 / Fold change vs veh, PPFIA1 / RFU, MAT2A / Fold change vs veh, MAT2A / RFU, CCT5 / Fold change vs veh, CCT5 / RFU, WDR92 / Fold change vs veh, WDR92 / RFU, CUX1 / Fold change vs veh, CUX1 / RFU, TTC7A / Fold change vs veh, TTC7A / RFU, TMEM135 / Fold change vs veh, TMEM135 / RFU, DEPTOR / Fold change vs veh, DEPTOR / RFU, CPM / Fold change vs veh, CPM / RFU, DNAJB6 / Fold change vs veh, DNAJB6 / RFU, CACNA2D3 / Fold change vs veh, CACNA2D3 / RFU, DTX4 / Fold change vs veh, DTX4 / RFU, TFCP2 / Fold change vs veh, TFCP2 / RFU, GMCL1 /// GMCL1P1 / Fold change vs veh, GMCL1 /// GMCL1P1 / RFU, AEBP2 / Fold change vs veh, AEBP2 / RFU, SNHG1 /// SNORD22 /// SNORD25 /// SNORD26 /// SNORD27 /// SNORD28 /// SNORD29 /// SNORD31 / Fold change vs veh, SNHG1 /// SNORD22 /// SNORD25 /// SNORD26 /// SNORD27 /// SNORD28 /// SNORD29 /// SNORD31 / Fold change (Aza/veh), C12orf56 (ProbeSet 11735607_a_at) / Fold change (ACY-1035/veh), C12orf56 (ProbeSet 11735607_a_at) / Fold change (Aza/veh), FGFR1OP (ProbeSet 11751329_s_at) / Fold change (ACY-1035/veh), FGFR1OP (ProbeSet 11751329_s_at) / Fold change (Aza/veh), VPS36 (ProbeSet 11739960_a_at) / Fold change (ACY-1035/veh), VPS36 (ProbeSet 11739960_a_at) / RFU SYPL1 (11715823_x_at) / Fold change /veh SYPL1 (11715823_x_at) / RFU IGFBP7 (11715501_s_at) / Fold change /veh IGFBP7 (11715501_s_at) / RFU REEP3 (11722064_at) / Fold change /veh REEP3 (11722064_at) / RFU IGLL1 (11728026_x_at) / Fold change /veh IGLL1 (11728026_x_at): dose or concentration left out as unconfirmed
Conditions: ProbeSet 11731610_x_at; LIST B

Nc1ncn([C@@H]2O[C@H](CO)[C@@H](O)[C@H]2O)c(=O)n1 [azacitidine]
Fold change vs veh, KIAA1704 /// LOC100996395: 1.05
